# Counter-ions that a name gives are not always drawn.
# Columns and labels:
# [1] = biological target: T1, human A2A AdoR (Homo sapiens, UniProt P29274); assay: Adenosine receptor binding assay, A2A ([3H]-CGS-21680); conditions: membranes of HEK-293 cells expressing human A2A AdoR; read-out: hA2A IC50
# T1 construct: purchased PerkinElmer RBHA2AM400UA
# Procedure: (§1) Membranes prepared from CHO-K1 cells stably expressing Human AiAdoR (ES-010-M400UA), HEK-293 cells stably expressing human A2A AdoR (RBHA2AM400UA), HEK-293 cells stably expressing human A2B AdoR (ES-013-M400UA) and CHO-K1 cells stably expressing Human A3 AdoR (ES-012-M400UA) were purchased from PerkinElmer (Waltham, Mass., USA) and stored at −80° C. until use. Binding assays are performed using the radioligands. The final concentrations are as follows: [3H]-DPCPX (PerkinElmer, NET974001MC) at 1 nM for A1AdoR; [^3H]-CGS-21680 (PerkinElmer, NET1021250UC) at 6 nM for A2AAdoR, [3H]-DPCPX (PerkinElmer, NET974001MC) at 8 nM for A2BAdoR; [^3H]-HEMADO (ARC, Cat: ART1456) at 1 nM for A3AdoR. Testing compounds are diluted with DMSO to make 8-point 4-fold serial dilution. Nonspecific binding (Low control: LC) and total binding (High control: HC) are determined in the presence or absence of saturated cold ligand. Specific binding is calculated by subtracting nonspecific binding from total binding. All assays are performed in a final volume of 200 μl containing 1 μl of the test compound in DMSO, 100 μl of membrane preparation, and 99 μl of the radioligand in assay buffer (A1AdoR: 25 mM HEPES pH 7.4, 5 mM MgCl2, 1 mM CaCl2), 100 mM NaCl; A2AAdoR: 50 mM Tris HCl pH 7.4, 10 mM MgCl2, 1 mM EDTA; A2BAdoR: 50 mM HEPES pH 7.0, 5 mM MgCl2, 1 mM EDTA; A3AdoR: 25 HEPES pH 7.4, 10 mM MgCl2, 1 mM CaCl2), 0.5% BSA). The incubation is performed at room temperature with shaking at 300 rpm for 1 hour for A1AdoR, A2BAdoR and A3AdoR and 2 hours for A2AAdoR. After the incubation, the assay mixture is filtered through 96 GF/C filter plates (Perkin Elmer #6005174) using Perkin Elmer Filtermate Harvester, and then washed four times with ice-cold washing buffer (A1AdoR: 25 mM HEPES pH 7.4, 5 mM MgCl2, 1 mM CaCl2), 100 mM NaCl; A2AAdoR: 50 mM Tris HCl pH 7.4, 154 mM NaCl; A2BAdoR: 50 mM HEPES pH 6.5, 5 mM MgCl2, 1 mM EDTA, 0.2% BSA; A3AdoR: 50 mM Tris HCl pH 7.4). The filters are dried for 1 hour at 50° C. and [^3H] trapped on filter counted for radioactivity in Perkin Elmer Microscint 20 cocktail (#6013329) using Perkin Elmer MicroBeta2 Reader. The results are expressed as a percent inhibition of the control radioligand specific binding calculated using the following equation: % Inhibition=(1−(Assay well-Average_LC)/(Average_HC−Average_LC))×100%. Data are analyzed and IC50 is calculated using GraphPad Prism 5 and the model “log(inhibitor) vs. response—Variable slope”. The binding affinity of the compounds is determined by using the Cheng and Prusoff equation Ki=IC50/(1+[radioligand]/Kd).
# [2] = biological target: T2, A1AdoR (Homo sapiens, UniProt P30542); assay: Adenosine receptor binding assay, A1 ([3H]-DPCPX); conditions: ratio A1 vs A2A binding
# T2 construct: purchased PerkinElmer ES-010-M400UA
# T2 sequence (P30542 1-326): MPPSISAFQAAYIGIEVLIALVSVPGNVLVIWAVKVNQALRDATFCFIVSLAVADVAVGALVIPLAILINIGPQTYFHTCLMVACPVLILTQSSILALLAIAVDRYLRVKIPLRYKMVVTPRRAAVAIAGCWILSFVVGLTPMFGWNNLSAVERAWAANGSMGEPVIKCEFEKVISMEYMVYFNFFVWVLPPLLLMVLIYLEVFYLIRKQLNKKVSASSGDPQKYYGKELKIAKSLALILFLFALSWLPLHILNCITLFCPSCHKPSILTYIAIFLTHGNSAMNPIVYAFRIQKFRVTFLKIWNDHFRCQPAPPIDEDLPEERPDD
# Procedure: as §1
# T1 sequence (P29274 whole entry): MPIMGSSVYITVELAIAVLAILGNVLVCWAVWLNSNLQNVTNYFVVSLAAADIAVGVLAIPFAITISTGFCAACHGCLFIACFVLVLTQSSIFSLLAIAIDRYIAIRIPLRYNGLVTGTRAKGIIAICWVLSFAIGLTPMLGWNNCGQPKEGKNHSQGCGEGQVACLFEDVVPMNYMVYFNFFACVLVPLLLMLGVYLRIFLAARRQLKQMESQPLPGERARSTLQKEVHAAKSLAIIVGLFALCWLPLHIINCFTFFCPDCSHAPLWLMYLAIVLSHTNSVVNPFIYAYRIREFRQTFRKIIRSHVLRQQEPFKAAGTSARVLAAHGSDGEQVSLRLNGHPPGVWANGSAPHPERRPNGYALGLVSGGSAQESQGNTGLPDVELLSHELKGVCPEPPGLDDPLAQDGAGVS
Compound,IC50 [1] [nM],A1/A2A Selectivity [2]
Cc1c(C(=O)O)n(CCN2CCN(c3ccncc3)CC2)c2nc(N)n3nc(-c4ccccn4)nc3c12,20 to 100,c (greater than 0 but less than or equal to 100)
"Cc1c(C(=O)O)n(CCN2CCN(c3ccc(F)cc3F)CC2)c2nc(N)n3nc(-c4ccccn4)nc3c12 [5-amino-7-(2-(4-(2,4-difluorophenyl)piperazin-1-yl)ethyl)-9-methyl-2-(pyridin-2-yl)-7H-pyrrolo[3,2-e][1,2,4]triazolo[1,5-c]pyrimidine-8-carboxylic acid]",≤ 20,b (greater than 100 but less than or equal to 1000)
"Nc1nc2c(c(Cl)c(C(=O)O)n2CCN2CCN(c3ccc(F)cc3F)CC2)c2nc(-c3ccccn3)nn12 [5-amino-9-chloro-7-(2-(4-(2,4-difluorophenyl)piperazin-1-yl)ethyl)-2-(pyridin-2-yl)-7H-pyrrolo[3,2-e][1,2,4]triazolo[1,5-c]pyrimidine-8-carboxylic acid]",≤ 20,b (greater than 100 but less than or equal to 1000)
"Nc1nc2c(c(Cl)c(C(=O)O)n2CCN2CCN(c3cc(-c4ncco4)ccc3F)CC2)c2nc(-c3ccccn3)nn12 [5-amino-9-chloro-7-(2-(4-(2-fluoro-5-(oxazol-2-yl)phenyl)piperazin-1-yl)ethyl)-2-(pyridin-2-yl)-7H-pyrrolo[3,2-e][1,2,4]triazolo[1,5-c]pyrimidine-8-carboxylic acid]",≤ 20,b (greater than 100 but less than or equal to 1000)
"Cc1noc2cc(F)c(N3CCCN(CCn4c(C(=O)O)c(Cl)c5c4nc(N)n4nc(-c6ccccn6)nc54)CC3)cc12 [5-amino-9-chloro-7-(2-(4-(6-fluoro-3-methylbenzo[d]isoxazol-5-yl)-1,4-diazepan-1-yl)ethyl)-2-(pyridin-2-yl)-7H-pyrrolo[3,2-e][1,2,4]triazolo[1,5-c]pyrimidine-8-carboxylic acid]",> 100,c (greater than 0 but less than or equal to 100)
"Cc1noc2cc(F)c(N3CCN(CCn4c(OC=O)c(Cl)c5c4nc(N)n4nc(-c6ccccn6)nc54)CC3)cc12 [5-amino-9-chloro-7-(2-(4-(6-fluoro-3-methylbenzo[d]isoxazol-5-yl)piperazin-1-yl)ethyl)-2-(pyridin-2-yl)-7H-pyrrolo[3,2-e][1,2,4]triazolo[1,5-c]pyrimidin-8-yl formate]",≤ 20,a (greater than 1000)
"Nc1nc2c(ncn2CCN2CCc3ncc(C4COC4)cc3C2)c2nc(-c3ccccn3)nn12 [3-(2-(3-(oxetan-3-yl)-7,8-dihydro-1,6-naphthyridin-6(5H)-yl)ethyl)-8-(pyridin-2-yl)-3H-[1,2,4]triazolo[5,1-i]purin-5-amine]",20 to 100,c (greater than 0 but less than or equal to 100)
"Cc1cc(N2CCN(CCn3c(C(N)=O)c(Cl)c4c3nc(N)n3nc(-c5ccccn5)nc43)CC2)c(F)cn1 [5-amino-9-chloro-7-(2-(4-(5-fluoro-2-methylpyridin-4-yl)piperazin-1-yl)ethyl)-2-(pyridin-2-yl)-7H-pyrrolo[3,2-e][1,2,4]triazolo[1,5-c]pyrimidine-8-carboxamide]",≤ 20,c (greater than 0 but less than or equal to 100)
CC#Cc1nc2c3ncn(CCN4CCc5ncc(-c6nccs6)cc5C4)c3nc(N)n2n1,≤ 20,c (greater than 0 but less than or equal to 100)
CNC(=O)c1c(Cl)c2c(nc(N)n3nc(-c4ccccn4)nc23)n1CCN1CCN(c2cc(-c3ncco3)ccc2F)CC1,≤ 20,a (greater than 1000)
CC#Cc1nc2c3ncn(CCN4CCN(c5cc(-n6cccn6)ccc5F)CC4)c3nc(N)n2n1,≤ 20,a (greater than 1000)
"Cc1c(C(=O)O)n(CCN2CCN(c3ncccn3)CC2)c2nc(N)n3nc(-c4ccccn4)nc3c12 [5-amino-9-methyl-2-(pyridin-2-yl)-7-(2-(4-(pyrimidin-2-yl)piperazin-1-yl)ethyl)-7H-pyrrolo[3,2-e][1,2,4]triazolo[1,5-c]pyrimidine-8-carboxylic acid]",≤ 20,b (greater than 100 but less than or equal to 1000)
"COC(=O)c1c(C)c2c(nc(N)n3nc(-c4ccccn4)nc23)n1CCN1CCCN(c2cc3c(C)noc3cc2F)CC1 [methyl 5-amino-7-(2-(4-(6-fluoro-3-methylbenzo[d]isoxazol-5-yl)-1,4-diazepan-1-yl)ethyl)-9-methyl-2-(pyridin-2-yl)-7H-pyrrolo[3,2-e][1,2,4]triazolo[1,5-c]pyrimidine-8-carboxylate]",≤ 20,b (greater than 100 but less than or equal to 1000)
"CNC(=O)c1c(C)c2c(nc(N)n3nc(-c4ccccn4)nc23)n1CCN1CCCN(c2cc(-c3ncco3)ccc2F)CC1 [5-amino-7-(2-(4-(2-fluoro-5-(oxazol-2-yl)phenyl)-1,4-diazepan-1-yl)ethyl)-N,9-dimethyl-2-(pyridin-2-yl)-7H-pyrrolo[3,2-e][1,2,4]triazolo[1,5-c]pyrimidine-8-carboxamide]",≤ 20,b (greater than 100 but less than or equal to 1000)
"Nc1nc2c(c(Cl)c(C(=O)O)n2CCN2CCN(c3ccncc3)CC2)c2nc(-c3ccccn3)nn12 [5-amino-9-chloro-2-(pyridin-2-yl)-7-(2-(4-(pyridin-4-yl)piperazin-1-yl)ethyl)-7H-pyrrolo[3,2-e][1,2,4]triazolo[1,5-c]pyrimidine-8-carboxylic acid]",20 to 100,b (greater than 100 but less than or equal to 1000)
"2-(4-(4-(2-(5-amino-8-(methoxycarbonyl)-9-methyl-2-(pyridin-2-yl)-7H-pyrrolo[3,2-e][1,2,4]triazolo[1,5-c]pyrimidin-7-yl)ethyl)piperazin-1-yl)phenoxy)acetic acid",≤ 20,b (greater than 100 but less than or equal to 1000)
Cc1noc2cc(F)c(N3CCN(CCn4c(C(=O)O)c(C)c5c4nc(N)n4nc(-c6ccccn6)nc54)CC3)cc12,≤ 20,b (greater than 100 but less than or equal to 1000)
CC#Cc1nc2c3ncn(CCN4CCN(c5ccc(OC(C)(C)C(=O)OC)cc5F)CC4)c3nc(N)n2n1,≤ 20,a (greater than 1000)
CC#Cc1nc2c3cc(C#N)n(CCN4CCN(c5ccc6onc(C)c6c5F)CC4)c3nc(N)n2n1,≤ 20,a (greater than 1000)
"Cc1c(C(=O)O)n(CCN2CCN(c3ccc(C#N)cc3F)CC2)c2nc(N)n3nc(-c4ccccn4)nc3c12 [5-amino-7-(2-(4-(4-cyano-2-fluorophenyl)piperazin-1-yl)ethyl)-9-methyl-2-(pyridin-2-yl)-7H-pyrrolo[3,2-e][1,2,4]triazolo[1,5-c]pyrimidine-8-carboxylic acid]",≤ 20,b (greater than 100 but less than or equal to 1000)
Cc1noc2cc(F)c(N3CCCN(CCn4c(C(N)=O)c(Cl)c5c4nc(N)n4nc(-c6ccccn6)nc54)CC3)cc12,≤ 20,b (greater than 100 but less than or equal to 1000)
